Experimental data as given in patent US12049450B2, “Pyridyloxy-carboxylate derivative and preparation method therefor, herbicidal composition, and use” (Qingdao Kingagroot Chemical Compound Co., Ltd., priority 2018, dated 2024).

Assays:
Assay in all cases: Post-emergence test experiment (greenhouse pot, spray at 2-3 leaf stage)
Assay type in all cases: in vivo
Settings in all cases: 1000 g/ha; post-emergence spray at 2-3 leaf stage; assessed after 3 weeks; fresh weight inhibition rate
Digitaria sanguinalis = system: Digitaria sanguinalis
In short: (§1)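 Activity graded levels 0-5 by fresh-weight inhibition (level 5 above 85%, level 0 below 5%), assessed 3 weeks after treatment. Plants grown in greenhouse pots were sprayed post-emergence at 2-3 leaves using acetone/tween-80 solutions with methyl oleate synergist (1.5 L/ha).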

Monochoria vaginalis = system: Monochoria vaginalis
In short: as §1

Echinochloa crusgalli = system: Echinochloa crusgalli
In short: as §1

Galium spurium = system: Galium spurium
In short: as §1

Abutilon theophrasti = system: Abutilon theophrasti
In short: as §1

Compound	Activity level (growth inhibition rate) Digitaria sanguinalis (Digitaria sanguinalis)	Activity level (growth inhibition rate) Monochoria Vaginalis (Monochoria vaginalis)	Activity level (growth inhibition rate) Echinochloa crusgalli (Echinochloa crusgalli)	Activity level (growth inhibition rate) Galium spurium (Galium spurium)	Activity level (growth inhibition rate) Abutilon theophrasti (Abutilon theophrasti)
CNc1c(Cl)c(F)nc(OC(C)C(=O)OCc2ccccc2)c1Cl (stereo not shown) [Compound 190]	5 (Level 5: the growth inhibition rate is greater than 85%)	5 (Level 5: the growth inhibition rate is greater than 85%)	5 (Level 5: the growth inhibition rate is greater than 85%)	5 (Level 5: the growth inhibition rate is greater than 85%)	5 (Level 5: the growth inhibition rate is greater than 85%)
CCNc1c(Cl)c(F)nc(OC(C)C(=O)SCc2ccccc2)c1Cl (stereo not shown) [Compound 191]	5 (Level 5: the growth inhibition rate is greater than 85%)	5 (Level 5: the growth inhibition rate is greater than 85%)	5 (Level 5: the growth inhibition rate is greater than 85%)	5 (Level 5: the growth inhibition rate is greater than 85%)	5 (Level 5: the growth inhibition rate is greater than 85%)
CC(=O)Nc1c(Cl)c(F)nc(OC(C)C(=O)OCc2ccccc2)c1Cl (stereo not shown) [Compound 192]	5 (Level 5: the growth inhibition rate is greater than 85%)	5 (Level 5: the growth inhibition rate is greater than 85%)	5 (Level 5: the growth inhibition rate is greater than 85%)	5 (Level 5: the growth inhibition rate is greater than 85%)	5 (Level 5: the growth inhibition rate is greater than 85%)
CC(Oc1nc(F)c(Cl)c(NC(=O)c2ccccc2)c1Cl)C(=O)OCc1ccccc1 (stereo not shown) [Compound 194]	5 (Level 5: the growth inhibition rate is greater than 85%)	5 (Level 5: the growth inhibition rate is greater than 85%)	5 (Level 5: the growth inhibition rate is greater than 85%)	5 (Level 5: the growth inhibition rate is greater than 85%)	5 (Level 5: the growth inhibition rate is greater than 85%)
CC(Oc1nc(F)c(Cl)c(NCc2ccccc2)c1Cl)C(=O)OCc1ccccc1 (stereo not shown) [Compound 195]	5 (Level 5: the growth inhibition rate is greater than 85%)	5 (Level 5: the growth inhibition rate is greater than 85%)	5 (Level 5: the growth inhibition rate is greater than 85%)	5 (Level 5: the growth inhibition rate is greater than 85%)	5 (Level 5: the growth inhibition rate is greater than 85%)
Cc1cccc(COC(=O)C(C)Oc2nc(F)c(Cl)c(N)c2Cl)c1 (stereo not shown) [Compound 196]	5 (Level 5: the growth inhibition rate is greater than 85%)	5 (Level 5: the growth inhibition rate is greater than 85%)	5 (Level 5: the growth inhibition rate is greater than 85%)	5 (Level 5: the growth inhibition rate is greater than 85%)	5 (Level 5: the growth inhibition rate is greater than 85%)
Cc1ccc(COC(=O)C(C)Oc2nc(F)c(Cl)c(N)c2Cl)cc1 (stereo not shown) [Compound 197]	5 (Level 5: the growth inhibition rate is greater than 85%)	5 (Level 5: the growth inhibition rate is greater than 85%)	5 (Level 5: the growth inhibition rate is greater than 85%)	5 (Level 5: the growth inhibition rate is greater than 85%)	5 (Level 5: the growth inhibition rate is greater than 85%)
CC(Oc1nc(F)c(Cl)c(N)c1Cl)C(=O)OCc1cccc(F)c1 (stereo not shown) [Compound 198]	5 (Level 5: the growth inhibition rate is greater than 85%)	5 (Level 5: the growth inhibition rate is greater than 85%)	5 (Level 5: the growth inhibition rate is greater than 85%)	5 (Level 5: the growth inhibition rate is greater than 85%)	5 (Level 5: the growth inhibition rate is greater than 85%)
CC(Oc1nc(F)c(Cl)c(N)c1Cl)C(=O)OCc1ccc(F)cc1 (stereo not shown) [Compound 199]	5 (Level 5: the growth inhibition rate is greater than 85%)	5 (Level 5: the growth inhibition rate is greater than 85%)	5 (Level 5: the growth inhibition rate is greater than 85%)	5 (Level 5: the growth inhibition rate is greater than 85%)	5 (Level 5: the growth inhibition rate is greater than 85%)
CC(Oc1nc(F)c(Cl)c(N)c1Cl)C(=O)OCc1ccccc1C#N (stereo not shown) [Compound 200]	5 (Level 5: the growth inhibition rate is greater than 85%)	5 (Level 5: the growth inhibition rate is greater than 85%)	5 (Level 5: the growth inhibition rate is greater than 85%)	5 (Level 5: the growth inhibition rate is greater than 85%)	5 (Level 5: the growth inhibition rate is greater than 85%)
CC(Oc1nc(F)c(Cl)c(N)c1Cl)C(=O)OCc1cccc(C#N)c1 (stereo not shown) [Compound 201]	5 (Level 5: the growth inhibition rate is greater than 85%)	5 (Level 5: the growth inhibition rate is greater than 85%)	5 (Level 5: the growth inhibition rate is greater than 85%)	5 (Level 5: the growth inhibition rate is greater than 85%)	5 (Level 5: the growth inhibition rate is greater than 85%)
CC(Oc1nc(F)c(Cl)c(N)c1Cl)C(=O)OCc1ccccc1Cl (stereo not shown) [Compound 202]	5 (Level 5: the growth inhibition rate is greater than 85%)	5 (Level 5: the growth inhibition rate is greater than 85%)	5 (Level 5: the growth inhibition rate is greater than 85%)	5 (Level 5: the growth inhibition rate is greater than 85%)	5 (Level 5: the growth inhibition rate is greater than 85%)
CC(Oc1nc(F)c(Cl)c(N)c1Cl)C(=O)OCc1cccc(Cl)c1 (stereo not shown) [Compound 203]	5 (Level 5: the growth inhibition rate is greater than 85%)	5 (Level 5: the growth inhibition rate is greater than 85%)	5 (Level 5: the growth inhibition rate is greater than 85%)	5 (Level 5: the growth inhibition rate is greater than 85%)	5 (Level 5: the growth inhibition rate is greater than 85%)
CC(Oc1nc(F)c(Cl)c(N)c1Cl)C(=O)OCc1ccc(Cl)cc1 (stereo not shown) [Compound 204]	5 (Level 5: the growth inhibition rate is greater than 85%)	5 (Level 5: the growth inhibition rate is greater than 85%)	5 (Level 5: the growth inhibition rate is greater than 85%)	5 (Level 5: the growth inhibition rate is greater than 85%)	5 (Level 5: the growth inhibition rate is greater than 85%)
CC(Oc1nc(F)c(Cl)c(N)c1Cl)C(=O)OCc1ccccc1Br (stereo not shown) [Compound 205]	5 (Level 5: the growth inhibition rate is greater than 85%)	5 (Level 5: the growth inhibition rate is greater than 85%)	5 (Level 5: the growth inhibition rate is greater than 85%)	5 (Level 5: the growth inhibition rate is greater than 85%)	5 (Level 5: the growth inhibition rate is greater than 85%)
CC(Oc1nc(F)c(Cl)c(N)c1Cl)C(=O)OCc1cccc(Br)c1 (stereo not shown) [Compound 206]	5 (Level 5: the growth inhibition rate is greater than 85%)	5 (Level 5: the growth inhibition rate is greater than 85%)	5 (Level 5: the growth inhibition rate is greater than 85%)	5 (Level 5: the growth inhibition rate is greater than 85%)	5 (Level 5: the growth inhibition rate is greater than 85%)
CC(Oc1nc(F)c(Cl)c(N)c1Cl)C(=O)OCc1ccc(Br)cc1 (stereo not shown) [Compound 207]	5 (Level 5: the growth inhibition rate is greater than 85%)	5 (Level 5: the growth inhibition rate is greater than 85%)	5 (Level 5: the growth inhibition rate is greater than 85%)	5 (Level 5: the growth inhibition rate is greater than 85%)	5 (Level 5: the growth inhibition rate is greater than 85%)
